Assays:
cocklebur = test: Test B pre/postemergence cocklebur; type: in vivo, Xanthium strumarium
Procedure, shortened: (§1)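 Herbicidal effect was estimated by eye on a ten-point control scale after plants spent twelve to sixteen days in a greenhouse following soil or foliar treatment. Foliar sprays targeted plants at one to four leaves; all doses were formulated in a non-phytotoxic solvent with surfactant.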

bamyardgrass = test: Test B flood test barnyardgrass; type: in vivo, Echinochloa crus-galli
Procedure, shortened: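 Each value is a visual injury score relative to controls, with 10 meaning complete control and 0 no effect. Evaluation took place twelve to sixteen days after the 2-leaf-stage plants were treated and kept in the greenhouse.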

rape = test: Test B pre/postemergence rape; type: in vivo, Brassica napus
Procedure, shortened: as §1

sugar beet = test: Test B pre/postemergence sugar beet; type: in vivo, Beta vulgaris
Procedure, shortened: as §1

[1] = Postemergence, Rate 62 g/ha, scale 0 to 10, 0 is no effect, 10 is complete control
[2] = Postemergence, Rate 250 g/ha, scale 0 to 10, 0 no effect, 10 complete control
[3] = Preemergence, Rate 62 g/ha, scale 0 to 10, 0 is no effect, 10 is complete control
[4] = Preemergence, Rate 125 g/ha, scale 0 to 10 (0 no effect, 10 complete control)
[5] = Preemergence, Rate 250 g/ha, scale of 0 to 10 where 0 is no effect and 10 is complete control
[6] = Preemergence, Rate 500 g/ha, scale 0 (no effect) to 10 (complete control)
[7] = Rate 125 g/ha, Postemergence, scale 0 to 10, 0 no effect, 10 complete control
[8] = Rate 500 g/ha, Postemergence, 0 to 10 scale (0 no effect, 10 complete control)
[9] = Rate 125 g/ha, Postemergence section (flood test species), scale 0 to 10, 0 no effect, 10 complete control
[10] = flood test, listed under Postemergence, Rate 250 g/ha, scale 0 to 10, 0 no effect, 10 complete control
[11] = Preemergence, Rate 62 g/ha, scale 0 to 10 (0 no effect, 10 complete control)
[12] = Rate 500 g/ha, Postemergence, scale 0 to 10, 0 no effect, 10 complete control
[13] = Rate 500 g/ha, listed under Postemergence (flood test species), scale 0 to 10, 0 no effect, 10 complete control
[14] = Postemergence, Rate 125 g/ha, scale 0 to 10, 0 is no effect, 10 is complete control
[15] = Preemergence, Rate 62 g/ha, scale of 0 to 10 where 0 is no effect and 10 is complete control
[16] = Preemergence, Rate 500 g/ha, scale of 0 to 10 where 0 is no effect and 10 is complete control
[17] = Rate 62 g/ha, Postemergence, scale 0 to 10 (0 no effect, 10 complete control)
[18] = Rate 62 g/ha, headed Pre-emergence (flood test species), scale 0 to 10 (0 no effect, 10 complete control)
[19] = Rate 125 g/ha, Pre-emergence, flood test species, scale 0 to 10 where 0 is no effect and 10 is complete control
[20] = Rate 250 g/ha, Pre-emergence, flood-test species, scale 0 to 10, 0 is no effect, 10 is complete control
[21] = Rate 500 g/ha, Pre-emergence, flood test species, scale 0 to 10 (0 no effect, 10 complete control)
[22] = Rate 125 g/ha, Postemergence, scale of 0 to 10 where 0 is no effect and 10 is complete control
[23] = Rate 250 g/ha, Postemergence, scale of 0 to 10 where 0 is no effect and 10 is complete control
[24] = Postemergence, Rate 125 g/ha, scale of 0 to 10 where 0 is no effect and 10 is complete control

## Cc1c(Cl)cccc1-n1c(=O)on(C(=O)N(c2ccc(F)cc2)C(C)C)c1=O [Compound 21]
cocklebur; [1]
  Cocklebur plant response rating: 0
cocklebur; [2]
  Cocklebur plant response rating: 5
cocklebur; [3]
  Plant response rating, Cocklebur: 0
cocklebur; [4]
  Plant response rating, Cocklebur: 0
cocklebur; [5]
  Plant response rating, Cocklebur: 0
cocklebur; [6]
  Cocklebur plant response rating: 0
cocklebur; [7]
  Cocklebur plant response rating: 0
cocklebur; [8]
  Cocklebur plant response rating: 7
bamyardgrass; [1]
  Barnyardgrass plant response rating: 0
bamyardgrass; [9]
  Barnyardgrass plant response rating: 0
bamyardgrass; Rate 500 g/ha, Postemergence section of Table B, 0 to 10 scale (0 no effect, 10 complete control)
  Barnyardgrass plant response rating: 0
bamyardgrass; [10]
  Barnyardgrass plant response rating: 0
rape; [1]
  Rape plant response rating: 0
rape; [2]
  Rape plant response rating: 0
rape; [3]
  Plant response rating, Rape: 0
rape; [4]
  Plant response rating, Rape: 0
rape; [5]
  Plant response rating, Rape: 0
rape; [6]
  Rape plant response rating: 0
rape; [7]
  Rape plant response rating: 0
rape; [8]
  Rape plant response rating: 0
Sugar beet; [1]
  Sugarbeets plant response rating: 0
Sugar beet; [2]
  Sugarbeets plant response rating: 0
Sugar beet; [3]
  Plant response rating, Sugarbeets: 0
Sugar beet; [4]
  Plant response rating, Sugarbeets: 0
Sugar beet; [5]
  Plant response rating, Sugarbeets: 3
Sugar beet; [6]
  Sugarbeets plant response rating: 8
Sugar beet; [7]
  Sugarbeets plant response rating: 0

## CCN(CC)C(=O)n1oc(=O)n(Cc2cccs2)c1=O [Compound 77]
cocklebur; [1]
  Cocklebur plant response rating: 0
cocklebur; [2]
  Cocklebur plant response rating: 0
cocklebur; [11]
  Cocklebur plant response rating: 0
cocklebur; [4]
  Plant response rating, Cocklebur: 0
cocklebur; [5]
  Plant response rating, Cocklebur: 0
cocklebur; [6]
  Cocklebur plant response rating: 0
cocklebur; [7]
  Cocklebur plant response rating: 0
cocklebur; [12]
  Cocklebur plant response rating: 4
bamyardgrass; [1]
  Barnyardgrass plant response rating: 0
bamyardgrass; [9]
  Barnyardgrass plant response rating: 0
bamyardgrass; [13]
  Barnyardgrass plant response rating: 0
bamyardgrass; [10]
  Barnyardgrass plant response rating: 0
rape; [1]
  Rape plant response rating: 0
rape; [2]
  Rape plant response rating: 0
rape; [11]
  Rape plant response rating: 0
rape; [4]
  Plant response rating, Rape: 0
rape; [5]
  Plant response rating, Rape: 0
rape; [6]
  Rape plant response rating: 0
rape; [7]
  Rape plant response rating: 0
rape; [12]
  Rape plant response rating: 3
Sugar beet; [1]
  Sugarbeets plant response rating: 0
Sugar beet; [2]
  Sugarbeets plant response rating: 0
Sugar beet; [11]
  Sugarbeets plant response rating: 0
Sugar beet; [4]
  Plant response rating, Sugarbeets: 0
Sugar beet; [5]
  Plant response rating, Sugarbeets: 0
Sugar beet; [6]
  Sugarbeets plant response rating: 0
Sugar beet; [7]
  Sugarbeets plant response rating: 0
Sugar beet; [12]
  Sugarbeets plant response rating: 0

## Cc1ccc(N(C(=O)n2oc(=O)n(-c3ccc4ccccc4c3)c2=O)C(C)C)cc1 [Compound 334]
cocklebur; [14]
  Plant response rating, Cocklebur: 0
cocklebur; [15]
  Cocklebur plant response rating: 0
cocklebur; Preemergence, Rate 125 g/ha
  Cocklebur plant response rating (0 to 10 scale): 0
cocklebur; [5]
  Cocklebur plant response rating: 0
cocklebur; [16]
  Cocklebur plant response rating: 0
cocklebur; [17]
  Cocklebur plant response rating: 0
cocklebur; [12]
  Plant response rating, Cocklebur: 0
bamyardgrass; [18]
  Barnyardgrass plant response rating: 0
bamyardgrass; [19]
  Barnyardgrass plant response rating: 0
bamyardgrass; [20]
  Barnyardgrass plant response rating: 0
bamyardgrass; [21]
  Barnyardgrass plant response rating: 0
rape; [14]
  Plant response rating, Rape: 0
rape; [15]
  Rape plant response rating: 0
rape; Preemergence, Rate 125 g/ha
  Rape plant response rating (0 to 10 scale): 0
rape; [5]
  Rape plant response rating: 0
rape; [16]
  Rape plant response rating: 0
rape; [17]
  Rape plant response rating: 0
rape; [12]
  Plant response rating, Rape: 0
Sugar beet; [14]
  Plant response rating, Sugarbeets: 0
Sugar beet; [15]
  Sugarbeets plant response rating: 0
Sugar beet; Preemergence, Rate 125 g/ha
  Sugarbeets plant response rating (0 to 10 scale): 0
Sugar beet; [5]
  Sugarbeets plant response rating: 0
Sugar beet; [16]
  Sugarbeets plant response rating: 0
Sugar beet; [17]
  Sugarbeets plant response rating: 0
Sugar beet; [12]
  Plant response rating, Sugarbeets: 0

## CC(C)n1c(=O)on(C(=O)N(c2ccc(Cl)cc2Cl)C2CCC2)c1=O [Compound 319]
cocklebur; [15]
  Cocklebur plant response rating: 0
cocklebur; Preemergence, Rate 125 g/ha
  Cocklebur plant response rating (0 to 10 scale): 0
cocklebur; [5]
  Cocklebur plant response rating: 0
cocklebur; [16]
  Cocklebur plant response rating: 0
cocklebur; [17]
  Cocklebur plant response rating: 0
cocklebur; [22]
  Cocklebur plant response rating: 0
cocklebur; [23]
  Plant response rating, Cocklebur: 0
cocklebur; [12]
  Cocklebur plant response rating: 0
bamyardgrass; [18]
  Barnyardgrass plant response rating: 0
bamyardgrass; [19]
  Barnyardgrass plant response rating: 0
bamyardgrass; [20]
  Barnyardgrass plant response rating: 0
bamyardgrass; [21]
  Barnyardgrass plant response rating: 2
rape; [15]
  Rape plant response rating: 0
rape; Preemergence, Rate 125 g/ha
  Rape plant response rating (0 to 10 scale): 0
rape; [5]
  Rape plant response rating: 0
rape; [16]
  Rape plant response rating: 0
rape; [17]
  Rape plant response rating: 0
rape; [22]
  Rape plant response rating: 0
rape; [23]
  Plant response rating, Rape: 0
Sugar beet; [15]
  Sugarbeets plant response rating: 0
Sugar beet; Preemergence, Rate 125 g/ha
  Sugarbeets plant response rating (0 to 10 scale): 0
Sugar beet; [5]
  Sugarbeets plant response rating: 0
Sugar beet; [16]
  Sugarbeets plant response rating: 0
Sugar beet; [17]
  Sugarbeets plant response rating: 0
Sugar beet; [22]
  Sugarbeets plant response rating: 0
Sugar beet; [23]
  Plant response rating, Sugarbeets: 0

## Cc1nn(C)c(Cl)c1-n1c(=O)on(C(=O)N(c2ccc(F)cc2F)C(C)C)c1=O [Compound 96]
cocklebur; [1]
  Cocklebur plant response rating: 0
cocklebur; [24]
  Cocklebur plant response rating: 0
cocklebur; [2]
  Cocklebur plant response rating: 0
cocklebur; [11]
  Cocklebur plant response rating: 0
cocklebur; [4]
  Plant response rating, Cocklebur: 0
cocklebur; [5]
  Plant response rating, Cocklebur: 0
cocklebur; [6]
  Cocklebur plant response rating: 0
cocklebur; [12]
  Cocklebur plant response rating: 2
bamyardgrass; [1]
  Barnyardgrass plant response rating: 0
bamyardgrass; [9]
  Barnyardgrass plant response rating: 0
bamyardgrass; [13]
  Barnyardgrass plant response rating: 0
bamyardgrass; [10]
  Barnyardgrass plant response rating: 0
rape; [1]
  Rape plant response rating: 0
rape; [24]
  Rape plant response rating: 0
rape; [2]
  Rape plant response rating: 0
rape; [11]
  Rape plant response rating: 0
rape; [4]
  Plant response rating, Rape: 0
rape; [5]
  Plant response rating, Rape: 0
rape; [6]
  Rape plant response rating: 3
rape; [12]
  Rape plant response rating: 0
Sugar beet; [1]
  Sugarbeets plant response rating: 0
Sugar beet; [24]
  Sugarbeets plant response rating: 0
Sugar beet; [11]
  Sugarbeets plant response rating: 0
Sugar beet; Preemergence, Rate 125 g/ha, 0 is no effect, 10 is complete control
  Sugarbeets plant response rating (0 to 10 scale): 0
Sugar beet; [5]
  Plant response rating, Sugarbeets: 0
Sugar beet; [6]
  Sugarbeets plant response rating: 2
Sugar beet; Rate 250 g/ha, Postemergence, scale 0 to 10, 0 is no effect, 10 is complete control
  Plant response rating, Sugarbeets: 0
Sugar beet; [12]
  Sugarbeets plant response rating: 0
